For 2 compounds, EC50 results are on record in BindingDB's records for doi:10.1021/acs.jmedchem.7b00843 (Wuxi Apptec, 2017).

A short description of this test: Inhibition of DLK in CD-1 mouse DRG neuron assessed as axonal protection pre-incubated for 2 hrs before NGF deprivation for 16 to 20 hrs by Campenot chamber based fluorescence assay.

In the case of `Nc1ncc(-c2cc([C@H]3[C@@H]4CN(C5COC5)C[C@@H]43)n(CC3CC3)n2)cc1C(F)(F)F`, the concentration for a half-maximal effect (EC50) – broadly, the concentration that produces a half-maximal response – came to 457 nM. Take `CC(C)n1nc(-c2cnc(N)c(OC(F)(F)F)c2)cc1[C@H]1[C@@H]2CN(C3COC3)C[C@@H]21`: the concentration giving a half-maximal response (EC50) is 574 nM.
